In PMC12040169 (PLOS Biology, 2025):

Assay: in vitro
Conditions: human, hela cells, % viability

SMILES | viability at 28.5 h, 10 µM
O=[N+]([O-])c1ccc(N2CCN(Cc3c(O)ccc4ccccc34)CC2)cc1NCc1ccccc1 [CBK268408] | 105%
CCOC(=O)c1ccc(-c2ccc(/C=C/c3nn4cnnc4c(O)c3[N+](=O)[O-])o2)cc1 [CBK268409] | 107%
COc1ccc(Cl)cc1NC(=O)CSc1nc2cc3ccccc3cc2[nH]1 [CBK268410] | 82.1%
O=C(COc1ccc(S(=O)(=O)N2CCCC2)cc1Cl)NCc1ccccn1 [CBK268412] | 91.3%
O=C(O)CCN1C(=O)c2ccc(NC(=O)c3ccccc3Cl)cc2C1=O [CBK268413] | 83.7%
Cc1ccc(Nc2c([N+](=O)[O-])nn(-c3ccccc3)[n+]2[O-])cc1F [CBK268414] | 102%
Cn1c(CCN2CCOCC2)nc2cc(NC(=O)c3cccs3)ccc21 [CBK268415] | 97.9%
COc1ccc(NC(=O)CSCc2cc(O)[nH]n2)cc1 [CBK268417] | 99.3%
c1nc(NCCN2CCOCC2)c2c3c(sc2n1)CCCCC3 [CBK268418] | 103%
O=C(O)COc1ccc(S(=O)(=O)N2CCCCC2)cc1Cl [CBK268419] | 105%
CC(C)(C)NC(=O)COc1ccc(CNCc2ccccn2)cc1 [CBK268420C] | 95.5%
CC(C)(C)c1ccc(OCc2nnc(S)n2N)cc1 [CBK268421] | 89.1%
O=C(CSc1oc(-c2ccco2)nc1S(=O)(=O)c1ccccc1)c1ccccc1 [CBK268424] | 96.9%
CN(CC(=O)O)S(=O)(=O)c1cccc2cccc(Cl)c12 [CBK268433] | 107%
COC(=O)Nc1ncc(CN2C(=O)c3ccccc3C2=O)s1 [CBK268434] | 111%
O=C(CSCc1ccc(Br)cc1)NCc1ccccn1 [CBK268435] | 102%
Cn1c(CCNC(=O)C2CCCCC2)nc2cc([N+](=O)[O-])ccc21 [CBK268440] | 106%
Fc1cc(Cl)ccc1NC(=S)NCCN1CCOCC1 [CBK268441] | 98.4%
O=C(O)COc1ccc(S(=O)(=O)Nc2ccc(F)cc2)cc1 [CBK268442] | 105%
COCCN1C(=O)c2ccc(C(=O)Nc3cc(C(=O)O)cc(C(=O)O)c3)cc2C1=O [CBK268444] | 96.5%
CN(CC(=O)O)S(=O)(=O)c1ccc(F)c2ccccc12 [CBK268447] | 98.5%
CCC(=O)Nc1nc(-c2ccc(C(=O)OC)cc2)nc2c1c(=O)oc1ccccc12 [CBK268449] | 110%

SMILES | viability at 28.5 h, 10 µM
CN(C)S(=O)(=O)c1ccc(C(=O)Nc2ccc3ncn(C)c(=O)c3c2)cc1 [CBK268450] | 103%
CN1CCN(C(=O)COc2ccc(S(=O)(=O)Nc3ccc(F)cc3)cc2)CC1 [CBK268454] | 94.5%
Cc1ccc(Nc2nc(CSc3nnc(-c4ccccc4)o3)cs2)cc1 [CBK268455] | 99.7%
CCOc1cc(C2Nc3ccccc3NC3=C2C(=O)C(C(=O)OC)C(C)C3)ccc1OC(C)C (centres unmarked) [CBK268456] | 111%
O=C1c2ccc(-c3nc4ccc(Cl)cc4c(=O)o3)cc2C(=O)N1Cc1cccnc1 [CBK268460] | 104%
O=C1c2ccccc2C(=O)N1Cc1nc2ccccc2c(=O)n1CCCN1CCOCC1 [CBK268463] | 96.1%
CC(C)C(CCC(=O)Nc1ccc([N+](=O)[O-])cc1O)C(=O)O (centres unmarked) [CBK268464] | 102%
Cc1nn(CC(=O)Nc2ccc3c(c2)nc(CN2CCCC2)n3C)c(=O)c2ccccc12 [CBK268465] | 97.5%
CN1C(CC(O)c2ccccc2)CCCC1C(=O)c1ccccc1 (centres unmarked) [CBK268467C] | 98.8%
O=C(CN1CCOCC1)Nc1ccc(S(=O)(=O)N2CCCC2)cc1 [CBK268468] | 103%
CCOC(=O)CC(=O)CSc1nc2nc(C)cc(C)n2n1 [CBK268469] | 99.8%
COc1cc(NC(=O)C(C)Oc2cccc(Cl)c2)c(C(=O)O)cc1OC (centres unmarked) [CBK268470] | 92.4%
O=C1c2ccccc2C(=O)N1Cc1nc2ccccc2c(=O)n1CCN1CCOCC1 [CBK268472] | 105%
Cn1c(CN2CCN(C(=O)c3ccco3)CC2)nc2cc([N+](=O)[O-])ccc21 [CBK268473] | 108%
CCc1nnc2sc(-c3ccc(C)c(NC(=O)c4ccc(N5CCCCC5)c([N+](=O)[O-])c4)c3)nn12 [CBK268476] | 91.5%
O=C1COc2ccc(S(=O)(=O)NCCOc3ccccc3)cc2N1 [CBK268480] | 95.9%
S=C(NNC(=S)Nc1ccc(Cl)c(Cl)c1)Nc1cccnc1 [CBK268483] | 96.2%
O=[N+]([O-])c1cccc(S(=O)(=O)NCCOc2cccc3cccnc23)c1 [CBK268489] | 98.6%
CS(=O)(=O)N1CCCC(C(=O)Nc2ccc(S(N)(=O)=O)cc2)C1 (centres unmarked) [CBK268490] | 83%
CCCC12CN3CC(C)(CN(C1)C31C(=O)Nc3ccc(C)cc31)C2=O (centres unmarked) [CBK268491] | 113%
Cc1ccc(CSCCNS(=O)(=O)c2ccc([N+](=O)[O-])cc2)cc1 [CBK268496] | 108%
O=C(CSCc1c(F)cccc1Cl)Nc1ccc(S(=O)(=O)N2CCCCCC2)cc1 [CBK268497] | 100%

SMILES | viability at 28.5 h, 10 µM
O=C(O)c1ccc(-n2nnnc2Sc2nc([N+](=O)[O-])nn2Cc2ccccc2F)cc1 [CBK268498] | 91.5%
Clc1ccc(-n2c(COc3cccc4cccnc34)nnc2SCc2ccccc2)cc1 [CBK268502] | 103%
O=[N+]([O-])c1nn(-c2ccccc2)[n+]([O-])c1Nc1ccc(Br)cc1 [CBK268504] | 98.7%
O=C(Cc1cccs1)Nc1cccc(C(=O)Nc2cccc(C(=O)O)c2)c1 [CBK268509] | 105%
CC(C)(CSc1ccccn1)NS(=O)(=O)c1ccccc1 [CBK268513] | 102%
Cc1c(C(N)=O)sc2ncn(CC(=O)NCCc3ccccc3)c(=O)c12 [CBK268514] | 90.4%
CCn1c(SCC(=O)Nc2ccc(C(C)=O)cc2)nnc1-c1cc(Br)ccc1O [CBK268515] | 89.2%
O=C(COc1ccc(S(=O)(=O)N2CCCCC2)cc1)NCc1ccccn1 [CBK268517] | 91.6%
CN(C)S(=O)(=O)c1ccc2[nH]cc(CCN)c2c1 [CBK268522C] | 99.7%
O=C(O)CC(C(=O)O)c1ccc(Cl)cc1Cl (centres unmarked) [CBK268523] | 95.5%
Cc1ccc(S(=O)(=O)N(C)CC(=O)NCc2nc(-c3ccccc3)no2)cc1 [CBK268524] | 93.4%
COc1ccc(S(=O)(=O)N(CC(=O)N2CCc3ccccc3C2)C2CCCCC2)cc1Cl [CBK268525] | 97.9%
Cc1nn2c(COc3ccc(NC(=O)C4CCCCC4)cc3)nnc2c2ccccc12 [CBK268528] | 104%
O=C(O)CC(C(=O)O)c1ccc(F)cc1 (centres unmarked) [CBK268531] | 87.6%
N#Cc1ccccc1Cn1cc(C(=O)COc2ccccc2)c2ccccc21 [CBK268532] | 90.5%
Cn1c(Cc2cccs2)nnc1SCC(=O)c1c[nH]c2ccccc12 [CBK268534] | 102%
CCOc1ccccc1OCc1nn2c(-c3ccncc3)nnc2s1 [CBK268535] | 111%
O=C(Nc1cnn(C23CC4CC(CC(C4)C2)C3)c1)c1cnn2c(C(F)(F)F)cc(-c3ccco3)nc12 [CBK268538] | 52.4%
CS(=O)(=O)N(CC(=O)Nc1ccccc1-c1ccccc1)c1ccc(F)c(Cl)c1 [CBK268539] | 91.2%
Cn1c(NCc2ccccn2)nc2ccccc21 [CBK268544] | 110%
COc1ccc(CNc2nc(-c3ccc(C)cc3)nn2C(=O)c2cccc([N+](=O)[O-])c2)cc1 [CBK268546] | 67.9%
O=C(COc1ccc(S(=O)(=O)N2CCCCC2)cc1)N1CCC(Cc2ccccc2)CC1 [CBK268547] | 108%

SMILES | viability at 28.5 h, 10 µM
O=C(CSCc1ccc([N+](=O)[O-])cc1)Nc1c[nH]c(=O)[nH]c1=O [CBK268549] | 98.5%
Fc1ccccc1COc1cccc(CNCc2ccccn2)c1 [CBK268552C] | 101%
COC(=O)c1ccc2c(=O)n(CCN3CCOCC3)c(=S)[nH]c2c1 [CBK268553] | 69%
Cc1ccc(S(=O)(=O)NCc2ccccc2)c(C)c1NS(C)(=O)=O [CBK268555] | 90.2%
c1cnc2c(OCc3nc4ccccc4[nH]3)cccc2c1 [CBK268556] | 74.6%
O=C(COc1ccc(S(=O)(=O)N2CCCC2)cc1Cl)Nc1ccc2c(c1)OCCO2 [CBK268559] | 116%
CC(Oc1ccc(Cl)cc1Cl)C(=O)Nc1ccc(N2CCN(C)CC2)c(Cl)c1 (centres unmarked) [CBK268563] | 85%
Cc1cccc(C(=O)Nc2ccccc2C(=O)N2CCN(C)CC2)c1 [CBK268565] | 89%
O=C(O)c1cccc(C(=O)Nc2cccc(NC(=O)C3CCCO3)c2)c1 (centres unmarked) [CBK268566] | 108%
Cc1ccc(SC(C)C(=O)O/N=C(\N)c2ccccn2)cc1 (centres unmarked) [CBK268567] | 111%
Cc1ccccc1OC(C)C(=O)NCCCc1ccccc1 (centres unmarked) [CBK268571] | 88.3%
CCOc1ccccc1NC(=O)c1ccc(CS(=O)(=O)c2ccc(C)cc2)cc1 [CBK268572] | 95.1%
O=C(CCN1C(=O)c2cc(Cl)c(Cl)cc2C1=O)Nc1cccc(-c2cnc3ccccc3n2)c1 [CBK268575] | 114%
Cc1ccc(NS(=O)(=O)c2cc(C(=O)N3CCN(C)CC3)ccc2C)cc1 [CBK268577] | 92.5%
O=C(Nn1cnnc1)c1ccccc1CCc1ccccc1 [CBK268578] | 87.7%
COc1cc(C)c(NC(=O)C(=S)NCc2ccco2)cc1C [CBK268582] | 103%
COc1ccc(S(=O)(=O)N(CC(=O)Nc2ccc3c(c2)OCCO3)c2ccc(F)cc2)cc1 [CBK268584] | 114%
Oc1c(C(Nc2cccnc2)c2ccccc2OCc2ccccc2)ccc2cccnc12 (centres unmarked) [CBK268587] | 71.5%
O=C(NCc1ccc2c(c1)OCO2)c1ccccc1CCc1ccccc1 [CBK268591] | 107%
CS(=O)(=O)Nc1ccc(C(=O)Nc2ccc(S(=O)(=O)N3CCCC3)cc2)cc1 [CBK268592] | 116%
